We go through 86 compounds from ChEMBL document CHEMBL1157539, “Thousands of chemical starting points for antimalarial lead identification” (Nature, 2010).

The experiment deals with Plasmodium falciparum. Nature of the experiment: GSK_TCMDC: Inhibition of Plasmodium falciparum 3D7 in whole erythrocytes, using parasite LDH activity as an index of growth. Format: functional, organism-based. The following applies: Plasmodium falciparum, 3D7.
Regarding `CCN1CCC(N(Cc2ccc(-c3ccc(C(F)(F)F)cc3)cc2)C(=O)Cn2nc(C)c(=O)cc2SCc2ccc(F)cc2)CC1`, the XC50 turned out to be 1010 nM.
`CN1CCC(N(Cc2ccc(-c3ccc(Cl)cc3)cc2)C(=O)Cn2c(CCc3cccc(F)c3F)cc(=O)c3ccccc32)CC1` registered an XC50 of 865 nM.
In turn, `Cc1cccc(C)c1C1CCN(C2CCC(NC(=O)/C=C/c3ccccc3)CC2)CC1` (stereo unspecified) registered an XC50 of 581 nM.
Take `O=c1cc(NCCCNCc2cn(S(=O)(=O)c3ccccc3)c3ccccc23)[nH]c2ccccc12`: the XC50 was found to be 879 nM.
`N#Cc1cncc(-c2nc3c(N4CCC(Cc5ccccc5)CC4)cccc3n2CCNCc2ccccc2)c1` came in with an XC50 of 573 nM.
`COc1ccc(CNCCCCCCNCc2ccc(OC)c3ccccc23)c2ccccc12`: the XC50 was found to be 581 nM.
With `CC(C)C1=CC(=NOS(=O)(=O)c2ccccc2)C=C(C(C)C)C1=O`, the XC50 was 712 nM.
The compound `COc1ccc(NC(=O)[C@H](CC(C)C)Nc2cc(C)nc(Nc3ccccc3)n2)cc1` came in with an XC50 of 866 nM.
The same measure for `O=c1cc(NCCC2CC=CCN2Cc2ccc(Cl)c(Cl)c2)[nH]c2ccccc12` (stereo unspecified): 1730 nM; for `CN1CCCC(CN2CCN(Cc3ccc(-c4ccc(-c5nc6ccccc6[nH]5)s4)cc3)CC2)C1` (stereo unspecified): 133 nM; for `COc1ccc(-c2csc(NC(=O)CCC(=O)O)n2)cc1OC`: 842 nM.
The result for `CN(c1ccc(F)cc1)S(=O)(=O)c1ccc(Cl)c(C(=O)Nc2cccc(C#N)c2)c1` reads 699 nM; that for `CC(C)C[C@H](NC(=O)c1ccc(OCCN2CCOCC2)cc1)C(=O)N[C@H](/C=N/NC(=O)c1ccccc1)CCc1ccccc1`, 62.1 nM; that for `CC(NC(=O)NC1CCC(CCN2CCCc3ccccc32)CC1)c1cccc2ccccc12` (stereo unspecified), 1020 nM.
Compound `COc1ccc(NC(=O)/C=C/c2ccc(Cl)c(Cl)c2)cc1N1CCN(C)CC1` registered an XC50 of 980 nM.
For `Cc1cc(N[C@@H](CC(C)C)C(=O)NCCOc2ccccc2)nc(Nc2ccccc2)n1`, the XC50 was 1110 nM.
The compound `COc1ccc2cc(CNCCCCCCNCc3ccc4cc(OC)ccc4c3)ccc2c1` gave an XC50 of 624 nM.
On to `COC(=O)c1ccc(CC(C)NCC(O)c2ccc(C(O)CNC(C)Cc3ccc(C(=O)OC)cc3)cc2)cc1` (stereo unspecified), for which the XC50 came to 1030 nM.
In turn, `O=C(Nc1ccc(OC2CCN(Cc3ccc(F)cc3)C2)cc1)c1cccs1` (stereo unspecified) yielded an XC50 of 642 nM.
The same measure for `COc1ccc(C=NN=c2cc[nH]c3ccccc23)c2ccccc12`: 696 nM; for `N#Cc1ccc(NC(=O)c2ccc(C(=O)NCCCCN3CCC(c4ccc5c(c4OCCOC4CCCCO4)CCCC5)CC3)cc2)cc1` (stereo unspecified): 580 nM.
The compound `CN(C)CCNC(=O)N1CCCN(c2ncnc3cc(-c4ccccc4)sc23)CC1` had an XC50 of 786 nM.
In turn, `Cc1cc2nc(-c3ccc(C(=O)NCCCc4ccccc4)cc3)[nH]c2cc1C` displayed an XC50 of 1180 nM.
`CC(C)Nc1nc(NC2CCCCC2)nc(N2CCCCCCC2)n1`: the XC50 was 1090 nM.
Turning to `CN(Cc1cccc(F)c1)C1CCN(c2cc(NC(=O)c3ccc(F)cc3)ccn2)C1` (stereo unspecified), the XC50 was determined as 1230 nM.
For `CCCCC1=CC2C(=O)C(C(=O)OC)=CN=C2C=C1OCc1ccccc1` (stereo unspecified), the XC50 stood at 42.2 nM.
`Cc1cc(NCCC(=O)NCc2cccc(F)c2)nc(Nc2ccccc2)n1` registered an XC50 of 1050 nM.
Take `N#Cc1ccc(-c2nc3c(N4CCCC4)cccc3n2CCNCc2ccccc2)cc1`: the XC50 came to 593 nM.
`CCCc1ccc(S(=O)(=O)NC2CCN(c3ccnc(Nc4ccc(F)cc4)n3)C2)cc1` (stereo unspecified) returned an XC50 of 1010 nM.
`Cc1nc(C)c(CC(=O)Nc2ccc(-c3cccc(-c4nc5cc(C(F)(F)F)ccc5[nH]4)c3)cc2)s1` displayed an XC50 of 925 nM.
The result for `COc1cc(Cc2cnc(N)nc2N)ccc1OCC(=O)Nc1ccc(C)cc1` reads 478 nM.
`COc1cc(Nc2ccnc3ccc(C(F)(F)F)cc23)cc(OC)c1OC`: the XC50 came to 698 nM.
Compound `Cc1cccc2nc(-c3ccc(-c4ccc(C(=O)NCCc5cn(C)cn5)cc4)s3)[nH]c12` gave an XC50 of 960 nM.
`COc1ccc(Nc2nc(NC3CCN(C)CC3)cc(-c3ccc(OC)cc3)n2)cc1` yielded an XC50 of 545 nM.
In the case of `CC1CCN(CC[C@H]2CCCN2S(=O)(=O)c2cccc(NC(=O)c3ccc(-c4ccccc4)cc3)c2)CC1`, the XC50 was 1260 nM.
The compound `Oc1cccc(Nc2nc(NCc3ccccc3)c3ccccc3n2)c1` returned an XC50 of 41.3 nM.
The result for `Cc1ccccc1C1CCN(C2CCC(NC(=O)c3ccc(-c4cc(C(F)(F)F)nn4C)s3)CC2)CC1` (stereo unspecified) reads 846 nM; that for `O=C(CN1CCN(C(C(=O)Nc2cc(C(F)(F)F)ccc2Cl)c2ccccc2)CC1)NC1CC1` (stereo unspecified), 443 nM; that for `COc1ccc(CN(C)Cc2cc(C(C)C)c(C)cc2O)cc1F`, 654 nM.
Turning to `N#Cc1ccc(-c2ccc(C(=O)NCCCCN3CCC(c4ccc5c(c4OCC(N)=O)CCCC5)CC3)cc2)cc1`, the XC50 is 984 nM.
In the case of `Cc1noc(-c2cccs2)c1C(=O)NCCc1cccc(Cl)c1`, the XC50 is 463 nM.
As for `CN1CCN(c2ccc(Nc3ncc([N+](=O)[O-])c(Nc4ccccc4O)n3)cc2)CC1`, the XC50 was 723 nM.
For the compound `Oc1ccc(CCNCCCCCCNCCc2ccc(Br)cc2)cc1O`, the XC50 was found to be 1020 nM.
In the case of `O=C(NCCN1CCCCC1)c1ccc(Nc2nccc(Nc3ccc(Oc4ccccc4)cc3)n2)cc1`, the XC50 was 553 nM.
For the compound `COc1ccc(CNCCCCCCCNCc2ccc(Cl)c(Cl)c2)cc1Cl`, the XC50 is 1220 nM.
In the case of `Cc1cccc2nc(-c3ccc(-c4ccc(CN5CCN(CCN6CCOCC6)CC5)cc4)s3)[nH]c12`, the XC50 was found to be 245 nM.
The same measure for `CN1CCC(C(=O)N(Cc2ccc(-c3ccc(CNCCc4ccc(S(C)(=O)=O)cc4)cn3)cc2)Cc2cccc(F)c2)CC1`: 706 nM; for `O=C(Cc1c[nH]cn1)Nc1cccc(-c2ccc(-c3nc4cc(C(F)(F)F)ccc4[nH]3)cc2)c1`: 700 nM; for `CCn1c(-c2nonc2N)nc2c(-c3ccc(CO)o3)ncc(OCCCN)c21`: 1360 nM.
The result for `CC[C@H]1CN2CC[C@@H]1C[C@H]2[C@H](O)c1cc(N2CCC(c3ccccc3)CC2)nc2ccc(OC)cc12` reads 346 nM; that for `CC[C@H]1CN(CCCC(=O)c2ccccc2)CC[C@H]1CCCc1ccnc2ccc(OC(=O)c3ccccc3)cc12`, 832 nM; that for `NC1(C(=O)O)Cc2ccc(Cl)cc2C1` (stereo unspecified), 734 nM.
For `CCCc1cc(Cc2cnc(N)nc2N)cc(CC)c1O`, the XC50 is 1320 nM.
As for `COc1ccc(C2CC(c3cccs3)=NN2C(=O)c2ccccc2)cc1OC` (stereo unspecified), the XC50 came out at 661 nM.
Regarding `Cc1cc(Cl)ccc1NC(=O)NCCCCCN1CCC(c2c[nH]c3ccccc23)CC1`, the XC50 was determined as 1010 nM.
On to `CCc1cn2c3c(cc(C(=O)N[C@@H](Cc4cccc(F)c4)[C@H](O)CNC4CCOCC4)cc13)N(C)S(=O)(=O)CC2`, for which the XC50 was 68.1 nM.
With `N#Cc1ccc2c(c1)CN(CCCCNC(=O)c1ccc(-c3ccccc3)cc1)CC2`, the XC50 was 894 nM.
The same measure for `CC1CCN(Cc2cccc(C(=O)NCc3ccc(F)c(-c4cccc(CN5CCN[C@@H](C)C5)c4)c3)c2)CC1`: 1460 nM; for `O=C(Nc1nc2cc(S(=O)(=O)NCCc3cccc(F)c3)ccc2n1CCCn1ccnc1)c1ccc(Cl)cc1`: 1270 nM.
In turn, `c1cc(-c2ccc(CN3CCCC3)cc2)cc(-c2nc3ccccc3[nH]2)c1` came in with an XC50 of 690 nM.
For `CCOc1ccc2[nH]c(C)cc(=NN=Cc3ccccc3)c2c1`, the XC50 came out at 785 nM.
The same measure for `N#Cc1ccc(N2CCN(Cc3ccc(-c4ccc(-c5nc6cc(C(F)(F)F)ccc6[nH]5)cc4)cc3)CC2)nc1`: 963 nM; for `CCn1c(CN2CCN(Cc3ccccc3)CC2)nc2cc(NC(=O)c3cccs3)ccc21`: 402 nM.
Take `COc1ccc2nc(SC(C)C(=O)c3c[nH]c4ccccc34)[nH]c2c1` (stereo unspecified): the XC50 worked out at 1280 nM.
The compound `COc1ccc(NC(=O)[C@H](CC(C)C)Nc2cc(C)nc(NCCc3ccccc3OC)n2)cc1` came in with an XC50 of 988 nM.
Take `FC(F)(F)COc1ccc(CCNCCCCNCCc2ccc(OCC(F)(F)F)c3ccccc23)c2ccccc12`: the XC50 was found to be 648 nM.
For the compound `COc1ccc(CCNCCCCCCNCCc2ccc(Cl)c(Cl)c2)cc1OC`, the XC50 stood at 926 nM.
In turn, `OCCN1CCN(Cc2ccc(-c3cccc(-c4nc5ccccc5[nH]4)c3)cc2)CC1` yielded an XC50 of 749 nM.
`CN(C)CCN(C)Cc1ccc(-c2ccc3c(Nc4ccc(Oc5ccccc5)cc4)ccnc3c2)o1`: the XC50 is 179 nM.
The same measure for `COc1ccc(C(=O)N2CCC(CN3CCOC(c4ccccc4)(c4ccccc4)C3)CC2)cc1`: 171 nM.
Consider `N#Cc1cccc(-c2nc(NCc3cccc(C(F)(F)F)c3)nn2-c2cccc(C(F)(F)F)c2)c1`, for which the XC50 worked out at 592 nM.
In the case of `CCCCCCCN1CC[C@@H](CCCc2ccnc3ccc(OC)cc23)[C@@H](CCN)C1`, the XC50 turned out to be 748 nM.
`O=C(CCCC(=O)Nc1ccc(C2=NCCN2)cc1)Nc1ccc(C2=NCCN2)cc1` displayed an XC50 of 106 nM.
Compound `Cc1cc2c(cc1Cl)N(C(=O)Nc1cc(F)cc(-c3cncnc3)c1)CC2` showed an XC50 of 377 nM.
The result for `OCCN1CCN(c2ccc(Nc3ccnc4cc5ccccc5cc34)cc2)CC1` reads 41 nM.
For the compound `N#Cc1c(-c2ccccc2)cn2c1[nH]c(=O)c1ccccc12`, the XC50 was 109 nM.
`O=[N+]([O-])c1cccc(NC(=S)N2CCCN(Cc3ccc(Cl)cc3Cl)CC2)c1` registered an XC50 of 925 nM.
In turn, `Nc1ccnc2ccc(OCCCCCCc3ccccc3)cc12` yielded an XC50 of 524 nM.
The compound `O=C(Nc1ccc(OC2CCN(Cc3ccc(F)cc3)C2)cc1)c1ccco1` (stereo unspecified) yielded an XC50 of 1040 nM.
The compound `COc1cc(NC(=O)Nc2ccc(Br)cc2C(=O)Nc2ccc(Br)cc2)cc(OC)c1OC` yielded an XC50 of 761 nM.
`N#Cc1ccc(C(=O)Nc2ccc(-c3cccc(CN4CCCC4)c3)cc2)cc1` gave an XC50 of 1000 nM.
The result for `CC1(C)CCCN(C(=O)c2cccc(-n3nc(-c4ccc(Cl)cc4)cc3N)c2)C1` reads 712 nM.
For the compound `O=C(/C=C/c1ccc(Cl)c(Cl)c1)NCCCCCCN1CCN(C(=O)Nc2ccc(OC(F)F)cc2)CC1`, the XC50 stood at 679 nM.
The same measure for `Cc1c(S(=O)(=O)Nc2ccc3nccc(N4CCN[C@H](C)C4)c3c2)sc2ccc(Cl)cc12`: 842 nM; for `CC(C)NC(=O)c1cccc(-c2ccc(OCCN3CCCC3c3cc4ccccc4[nH]3)cc2)c1` (stereo unspecified): 958 nM; for `CN1CCN(c2ccnc3ccc(NC(=O)Nc4cccc5c(-c6ccncc6)cccc45)cc23)CC1`: 877 nM.
